Laboratory results reported in the NIST ThermoML archive (doi:10.1016/j.jct.2012.11.016).
± gives the expanded uncertainty stated by the source.

Key:
[1] = 101.33 kPa, Liquid; for viscosity: Capillary tube (Ostwald / Ubbelohde) method; for mass density: Vibrating tube method
[2] = refractive index (Na D-line) (dimensionless); settings: 101.33 kPa, Liquid, Standard Abbe refractometry

| Compound | viscosity ([1]; 298.15 K) [mPa·s] | viscosity ([1]; 303.15 K) [mPa·s] | mass density ([1]; 303.15 K) [kg/m3] | viscosity ([1]; 308.15 K) [mPa·s] | mass density ([1]; 298.15 K) [kg/m3] | mass density ([1]; 308.15 K) [kg/m3] | refractive index ([2]; 298.15 K) | refractive index ([2]; 303.15 K) | refractive index ([2]; 308.15 K) |
| --- | --- | --- | --- | --- | --- | --- | --- | --- | --- |
| OCCO [1,2-ethanediol] | 16.87 ± 1.7 | 13.59 ± 1.4 | 1106 ± 1.1 | 11.34 ± 1.1 |  |  |  |  |  |
| OCCCCO [1,4-butanediol] | 72.33 ± 7.3 | 56.43 ± 5.7 | 1010.6 ± 0.9 | 44.11 ± 4.5 | 1013.9 ± 0.9 | 1007.5 ± 0.9 |  |  |  |
| OCCCO [propan-1,3-diol] | 41.36 ± 4.2 | 32.78 ± 3.3 | 1046.2 ± 0.9 | 27 ± 2.7 | 1049.6 ± 0.9 | 1043.1 ± 0.9 |  |  |  |
| O [water] | 0.806 ± 0.081 | 0.728 ± 0.073 | 995.4 ± 0.3 | 0.661 ± 0.066 |  | 993.7 ± 0.3 | 1.3326 ± 0.0005 | 1.3321 ± 0.0005 | 1.3315 ± 0.0005 |
